Experimental data: US9187472B2 (AbbVie Inc., priority 2012, dated 2015)

Experiments:
NAMPT = NAMPT (Homo sapiens, UniProt P43490); assay: TR-FRET Binding Assay of NAMPT with PRPP; conditions: with 200 μM PRPP and 2.5 mM ATP; 2 nM NAMPT, 2 nM probe, 16 hours equilibration
How it was run: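 Compounds were mixed with 2 nM His-tagged NAMPT, 2 nM probe, 1 nM terbium anti-His antibody, 200 μM PRPP and 2.5 mM ATP in assay buffer with 2% DMSO, then left 16 hours to permit possible enzymatic processing of compounds before time-resolved FRET was measured.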

[1] = target: NAMPT (human, recombinant, C-terminally His-tagged) (Homo sapiens, UniProt P43490); assay: Time-Resolved Fluorescence Resonance Energy Transfer (TR-FRET) Binding Assay of NAMPT; conditions: without substrates; 6.8 nM NAMPT, 200 nM probe, 3 hours equilibration
Chain of NAMPT (human, recombinant, C-terminally His-tagged) (P43490 whole entry): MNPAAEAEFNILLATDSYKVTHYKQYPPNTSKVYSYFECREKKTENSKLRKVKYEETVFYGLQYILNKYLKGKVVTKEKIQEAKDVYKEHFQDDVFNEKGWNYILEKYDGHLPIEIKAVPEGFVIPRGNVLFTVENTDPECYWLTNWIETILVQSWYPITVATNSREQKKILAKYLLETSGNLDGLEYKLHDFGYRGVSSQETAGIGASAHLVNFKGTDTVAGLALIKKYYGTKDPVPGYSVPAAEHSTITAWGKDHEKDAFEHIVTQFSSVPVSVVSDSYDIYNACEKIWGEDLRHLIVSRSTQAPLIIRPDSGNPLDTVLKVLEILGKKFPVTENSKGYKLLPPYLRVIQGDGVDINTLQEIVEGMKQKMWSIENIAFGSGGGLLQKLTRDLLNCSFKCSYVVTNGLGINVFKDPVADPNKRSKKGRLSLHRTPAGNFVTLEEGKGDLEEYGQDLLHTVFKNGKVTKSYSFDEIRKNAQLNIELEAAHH
How it was run: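 Compounds, diluted in half-log steps, are mixed with enzyme (6.8 nM), fluorescent probe (200 nM) and Tb-anti-His antibody (1 nM) in pH 7.5 HEPES buffer containing 10 mM MgCl2 and 1 mM DTT. Plates equilibrate 3 h at room temperature; normalized FRET ratios are fitted by four-parameter logistic regression for IC50.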

PC3 cells = assay: NAMPT Cell Proliferation Assay; format: cell-based; conditions: Homo sapiens, PC-3, 120 h, 5 days incubation, cell viability by Cell Titer Glo
How it was run: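 Seed PC3 at 500 cells/well (RPMI, 10% HI-FBS), attach overnight; add compound, 10-fold series 10 μM → 1×10^−5 μM; incubate 5 d, 37° C/5% CO2; luminescent viability readout; fit % inhibition sigmoidally for IC50.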

Chain of NAMPT (P43490 whole entry): as above

| Structure (SMILES) | IC50 (NAMPT) | IC50 [1] | IC50 (PC3 cells) |
| --- | --- | --- | --- |
| CC(C)CCNC(=O)c1ccc(C(=O)NCc2ccn3ccnc3c2)cc1 [Example 393, N-(imidazo[1,2-a]pyridin-7-ylmethyl)-N′-(3-methylbutyl)benzene-1,4-dicarboxamide] | 4.37 nM | > 10000 nM | > 10000 nM |
| O=C(NCc1ccn2ccnc2c1)c1ccc(C(=O)NC[C@@H]2CCOC2)cc1 [Example 394, N-(imidazo[1,2-a]pyridin-7-ylmethyl)-N′-[(3S)-tetrahydrofuran-3-ylmethyl]benzene-1,4-dicarboxamide] | 3.08 nM | > 10000 nM | > 10000 nM |
| O=C(NCc1ccn2ccnc2c1)c1ccc(-c2cnn(C[C@H]3CCCO3)c2)s1 [Example 395, N-(imidazo[1,2-a]pyridin-7-ylmethyl)-5-{1-[(2R)-tetrahydrofuran-2-ylmethyl]-1H-pyrazol-4-yl}thiophene-2-carboxamide] | 0.193 nM | 12.5 nM | 6.34 nM |
| O=C(Nc1ccc(C(=O)NCC2CCCCO2)cc1)Nc1ccc2ncc(Cl)n2c1 (stereo not drawn) [Example 396, 4-{[(3-chloroimidazo[1,2-a]pyridin-6-yl)carbamoyl]amino}-N-(tetrahydro-2H-pyran-2-ylmethyl)benzamide] | 0.36 nM | 22.6 nM | 32.4 nM |
| O=C(NCc1ccn2ccnc2c1)c1ccc(-c2cnn(C[C@@H]3CCCO3)c2)s1 [Example 397, N-(imidazo[1,2-a]pyridin-7-ylmethyl)-5-{1-[(2S)-tetrahydrofuran-2-ylmethyl]-1H-pyrazol-4-yl}thiophene-2-carboxamide] | 0.169 nM | 17.7 nM | 7.12 nM |
| O=C(CC1CCOC1)Nc1ccc(C(=O)NCc2ccc3ncc(Cl)n3c2)cc1 (stereo not drawn) [Example 398, N-[(3-chloroimidazo[1,2-a]pyridin-6-yl)methyl]-4-[(tetrahydrofuran-3-ylacetyl)amino]benzamide] | 0.792 nM | 210 nM | 73.6 nM |
| O=C(NCc1ccn2ccnc2c1)c1ccc(C2(O)CCOCC2)s1 [Example 399, 5-(4-hydroxytetrahydro-2H-pyran-4-yl)-N-(imidazo[1,2-a]pyridin-7-ylmethyl)thiophene-2-carboxamide] | 1.54 nM | 9500 nM | 7680 nM |
| O=C(NCc1ccn2ccnc2c1)c1ccc(C2(O)CN(C(=O)c3ccccc3)C2)s1 [Example 401, 5-(1-benzoyl-3-hydroxyazetidin-3-yl)-N-(imidazo[1,2-a]pyridin-7-ylmethyl)thiophene-2-carboxamide] | 0.292 nM | 12.6 nM | 55.9 nM |
| CC(C)(C)OC(=O)N1CC(c2ccc(C(=O)NCc3ccn4ccnc4c3)cc2)C1 [Example 402, tert-butyl 3-{4-[(imidazo[1,2-a]pyridin-7-ylmethyl)carbamoyl]phenyl}azetidine-1-carboxylate] | 0.327 nM | 54.8 nM | 6.71 nM |
| CC(C)(C)OC(=O)N1CCC(O)(c2ccc(C(=O)NCc3ccn4ccnc4c3)s2)CC1 [Example 403, tert-butyl 4-hydroxy-4-{5-[(imidazo[1,2-a]pyridin-7-ylmethyl)carbamoyl]thiophen-2-yl}piperidine-1-carboxylate] | 0.847 nM | 1550 nM | 54.5 nM |
| CC(C)CCNC(=O)c1cnc(NC(=O)NCc2ccn3ccnc3c2)s1 [Example 407, 2-{[(imidazo[1,2-a]pyridin-7-ylmethyl)carbamoyl]amino}-N-(3-methylbutyl)-1,3-thiazole-5-carboxamide] | 0.659 nM | 220 nM | 1310 nM |
| CC[C@H](C)C(=O)NC1(c2ccc(C(=O)NCc3ccn4ccnc4c3)s2)COC1 [Example 408, N-(imidazo[1,2-a]pyridin-7-ylmethyl)-5-(3-{[(2S)-2-methylbutanoyl]amino}oxetan-3-yl)thiophene-2-carboxamide] | 0.725 nM | 276 nM | 19.2 nM |
| CC(C)CC(=O)N1CCC(n2nccc2C(=O)NCc2ccn3ccnc3c2)CC1 [Example 409] | 480 nM | > 10000 nM | ≥ 10000 nM |
| CC(C)C(=O)N1CCC(Oc2ccc(C(=O)NCc3ccn4ccnc4c3)cc2)CC1 [Example 412, N-(imidazo[1,2-a]pyridin-7-ylmethyl)-4-{[1-(2-methylpropanoyl)piperidin-4-yl]oxy}benzamide] | 0.424 nM | 1250 nM | 978 nM |
| CC[C@H](C)C(=O)N1CCC(Oc2ccc(C(=O)NCc3ccn4ccnc4c3)cc2)CC1 [Example 413, N-(imidazo[1,2-a]pyridin-7-ylmethyl)-4-({1-[(2S)-2-methylbutanoyl]piperidin-4-yl}oxy)benzamide] | 0.279 nM | 805 nM | 190 nM |
| O=C(NCc1ccn2ccnc2c1)c1ccc(OC2CCN(C(=O)CC3CC3)CC2)cc1 [Example 414, 4-{[1-(cyclopropylacetyl)piperidin-4-yl]oxy}-N-(imidazo[1,2-a]pyridin-7-ylmethyl)benzamide] | 0.307 nM | 2630 nM | 853 nM |
| CC(C)(O)C(=O)N1CCC(Oc2ccc(C(=O)NCc3ccn4ccnc4c3)cc2)CC1 [Example 417, 4-{[1-(2-hydroxy-2-methylpropanoyl)piperidin-4-yl]oxy}-N-(imidazo[1,2-a]pyridin-7-ylmethyl)benzamide] | 0.264 nM | 6840 nM | 867 nM |
| O=C(NCc1ccn2ccnc2c1)c1ccc(OC2CCN(C(=O)[C@H]3CCCO3)CC2)cc1 [Example 418, N-(imidazo[1,2-a]pyridin-7-ylmethyl)-4-({1-[(2R)-tetrahydrofuran-2-ylcarbonyl]piperidin-4-yl}oxy)benzamide] | 0.233 nM | 4750 nM | 866 nM |
| O=C(NCc1ccn2ccnc2c1)c1ccc(OC2CCN(C(=O)[C@@H]3CCCO3)CC2)cc1 [Example 419, N-(imidazo[1,2-a]pyridin-7-ylmethyl)-4-({1-[(2S)-tetrahydrofuran-2-ylcarbonyl]piperidin-4-yl}oxy)benzamide] | 0.197 nM | 2430 nM | 365 nM |

Continued, values first:

| IC50 (NAMPT) | IC50 [1] | IC50 (PC3 cells) | Structure (SMILES) |
| --- | --- | --- | --- |
| 0.445 nM | 133 nM | 80.3 nM | O=C(NCc1ccn2ccnc2c1)Nc1ccc(C2CCN(C(=O)C3COCCO3)C2)cc1 (stereo not drawn) [Example 390] |
| 0.227 nM | 171 nM | 78.4 nM | O=C(NCc1ccn2ccnc2c1)Nc1ccc(C2CCN(C(=O)CC3CCOCC3)C2)cc1 (stereo not drawn) [Example 391, 1-(imidazo[1,2-a]pyridin-7-ylmethyl)-3-{4-[1-(tetrahydro-2H-pyran-4-ylacetyl)pyrrolidin-3-yl]phenyl}urea] |
| 0.465 nM | 814 nM | 666 nM | O=C(NCc1ccn2ccnc2c1)Nc1ccc(C2CCN(C(=O)CN3CCOCC3)C2)cc1 (stereo not drawn) [Example 392, 1-(imidazo[1,2-a]pyridin-7-ylmethyl)-3-{4-[1-(morpholin-4-ylacetyl)pyrrolidin-3-yl]phenyl}urea] |
| 0.298 nM | 81.2 nM | 712 nM | CC(C)C(=O)N1CC(O)(c2ccc(C(=O)NCc3ccn4ccnc4c3)s2)C1 [Example 400, 5-[3-hydroxy-1-(2-methylpropanoyl)azetidin-3-yl]-N-(imidazo[1,2-a]pyridin-7-ylmethyl)thiophene-2-carboxamide] |
| 0.88 nM | 2550 nM | 9410 nM | O=C(NCc1ccn2ccnc2c1)Nc1ncc(C(=O)N2CCCCC2)s1 [Example 404, 1-(imidazo[1,2-a]pyridin-7-ylmethyl)-3-[5-(piperidin-1-ylcarbonyl)-1,3-thiazol-2-yl]urea] |
| 0.214 nM | 78.4 nM | 22.1 nM | CC[C@H](C)C(=O)N1CC(O)(c2ccc(C(=O)NCc3ccn4ccnc4c3)s2)C1 [Example 405, 5-{3-hydroxy-1-[(2S)-2-methylbutanoyl]azetidin-3-yl}-N-(imidazo[1,2-a]pyridin-7-ylmethyl)thiophene-2-carboxamide] |
| 0.505 nM | 1140 nM | 347 nM | O=C(NCc1ccn2ccnc2c1)c1ccc(C2(O)CN(C(=O)CC3CCOCC3)C2)s1 [Example 406, 5-[3-hydroxy-1-(tetrahydro-2H-pyran-4-ylacetyl)azetidin-3-yl]-N-(imidazo[1,2-a]pyridin-7-ylmethyl)thiophene-2-carboxamide] |
| 0.556 nM | 1870 nM | 4720 nM | CC(=O)N1CCC(Oc2ccc(C(=O)NCc3ccn4ccnc4c3)cc2)CC1 [Example 411, 4-[(1-acetylpiperidin-4-yl)oxy]-N-(imidazo[1,2-a]pyridin-7-ylmethyl)benzamide] |
| 0.246 nM | 1620 nM | 234 nM | O=C(NCc1ccn2ccnc2c1)c1ccc(OC2CCN(C(=O)c3ccccc3)CC2)cc1 [Example 415, 4-[(1-benzoylpiperidin-4-yl)oxy]-N-(imidazo[1,2-a]pyridin-7-ylmethyl)benzamide] |
| 0.318 nM | 2500 nM | 659 nM | CC(C)OCC(=O)N1CCC(Oc2ccc(C(=O)NCc3ccn4ccnc4c3)cc2)CC1 [Example 416, N-(imidazo[1,2-a]pyridin-7-ylmethyl)-4-({1-[(propan-2-yloxy)acetyl]piperidin-4-yl}oxy)benzamide] |
